Patent US7858650B2, “Medicinal composition for inhalation” (Ono Pharmaceutical Co., Ltd., priority 2004, dated 2010)

Tests used:
Format in all cases: in vivo
[1] = tested on: histamine-induced airway contractile response; assay: Inhibitory activity on histamine-induced airway contractile response and hypotensive activity, intravenous or inhalation administration; details: anesthetized guinea pig, histamine 10 μg/kg i.v.; inhalation (5 minutes, nebulizer) versus intravenous administration; FIG. 1
Procedure: (1) Inhibitory Activity on Histamine-Induced Airway Contractile Response and Hypotensive Activity of Intravenous Administration or Inhalation Administration in Guinea Pig
A guinea pig anesthetized with sodium pentobarbital (75 mg/kg, i.p.) was treated with gallamine (10 mg/kg, i.v.), and an experiment was carried out under artificial respiration. As an airway contraction inducing substance, histamine (10 μg/kg, i.v.) was used, and the airway contractile response was determined by the Konzett & Roessler method (Konzett, H., Roessler, R. Versuchsanordnung zu untersuchungen ander Bronchial-muskulatur. Arch Exp Pathol Pharmacol 1940; 195:71-74). Additionally, the blood pressure was also measured at the same time. A test substance was administered intravenously or by inhalation (the test substance or a physiological saline solution was atomized using an ultrasonic nebulizer and inhaled directly into the trachea for 5 minutes using an artificial respirator). An inhibition ratio of airway contraction (%) was calculated by taking the airway contraction induced by histamine before administration of the test substance or in a group administered with a physiological saline solution as 0% inhibition. The amount of blood pressure reduction (mmHg) was expressed as the amount of diastolic blood pressure reduction. […] From this, it was shown that the pharmaceutical composition for inhalation of the present invention has an inhibitory effect on airway contraction and its hypotensive effect is small.

[2] = tested on: methacholine-induced airway contractile response; assay: Effect of intratracheal administration on methacholine-induced airway contractile response; details: guinea pig, methacholine 10 μg/kg i.v.
Procedure: (2) Effect of Compound of the Present Invention by Intratracheal Administration on Methacholine-Induced Airway Contractile Response in Guinea Pig
A test substance was intratracheally administered to a guinea pig anesthetized with GOI (laughing gas:oxygen=3:1, 3% isoflurane) using a tube for intratracheal administration. After a certain period of time, the guinea pig was anesthetized with sodium pentobarbital (50 mg/kg, i.p.) and treated with gallamine (10 mg/kg, i.v.). Then, the resulting airway contractile response was determined under artificial respiration. As an airway contraction inducing substance, methacholine (10 μg/kg, i.v.) was used, and the airway contractile response was determined by the Konzett & Roessler method. A ratio of airway contraction (% of maximum) was calculated by taking the airway response obtained by closing a three-way stopcock attached to an upper part of a cannula inserted into the tracheal tube of the guinea pig as 100%.

[3] = Hypotensive effect of a sustained prodrug of EP2 agonist (blood pressure after intratracheal administration); details: guinea pig, blood pressure measured for 12.5 minutes after administration, FIGS. 6 and 8
Procedure: (§1) (3) Bronchodilator Effect and Hypotensive Effect of a Sustained Prodrug of EP2 Agonist
(§2) A guinea pig anesthetized with sodium pentobarbital (50 mg/kg, i.p.) was treated with gallamine (10 mg/kg, i.v.), and an experiment was carried out under artificial respiration. As an airway contraction inducing substance, methacholine (10 μg/kg, i.v.) was used, and the airway contractile response was determined by the Konzett & Roessler method. Compound B was dissolved in an equimolar amount of sodium hydroxide and diluted with a physiological saline solution. Compound F was suspended in a physiological saline solution containing 2% ethanol and 10% Tween 80 to prepare a test substance. The test substance was intratracheally administered using a tube for intratracheal administration. After the administration of the test substance, the blood pressure and the airway contractile response were measured for 12.5 minutes and 3 hours, respectively. A ratio of airway contraction (%) was calculated by taking the airway response obtained by closing a three-way stopcock attached to an upper part of a cannula inserted into the tracheal tube of the guinea pig as 100% contraction. The amount of blood pressure reduction (mmHg) was expressed based on the blood pressure before administration of the test substance.

[4] = tested on: methacholine-induced airway contractile response; assay: Bronchodilator effect of a sustained prodrug of EP2 agonist (methacholine-induced airway contraction, intratracheal); details: guinea pig, intratracheal administration, methacholine 10 μg/kg i.v., airway contractile response measured for 3 hours; FIGS. 7 and 9
Procedure: as §1, §2

Q: For `CCC1([C@@H](O)C/C=C/[C@H]2CCC(=O)N2CCSc2nc(C(=O)O)cs2)CCC1` [Compound A, 2-[(2-{(2R)-2-[(1E,4S)-4-(1-ethylcyclobutyl)-4-hydroxybut-1-enyl]-5-oxopyrrolidin-1-yl}ethyl)sulfanyl]-1,3-thiazole-4-carboxylic acid], which “dissociation between the inhibitory effect on airway contraction and the hypotensive effect” value [1] is on record?
A: Its value is “became larger by inhalation administration than by intravenous administration”.

Q: What does the source list for `O=C(O)c1csc(SCCN2C(=O)CC[C@@H]2COc2cc(Cl)cc(Cl)c2)n1` [Compound B, 2-[(2-{(2R)-2-[(3,5-dichlorophenoxy)methyl]-5-oxopyrrolidin-1-yl}ethyl)thio]-1,3-thiazole-4-carboxylic acid]?
A: time after administration at which the bronchodilator effect was lost ([2]; FIG. 2): around 3 hours; bronchodilator effect ([2]; FIGS. 2 to 5): has a bronchodilator effect; dissociation between the inhibitory effect on airway contraction and the hypotensive effect [1]: became larger by inhalation administration than by intravenous administration

Q: For `O=C(O)c1csc(SCCN2C(=O)CC[C@@H]2COc2cccc(C(F)(F)F)c2Cl)n1` [Compound C, 2-{[2-((2R)-2-{[2-chloro-3-(trifluoromethyl)phenoxy]methyl}-5-oxopyrrolidin-1-yl)ethyl]sulfanyl}-1,3-thiazole-4-carboxylic acid], which “dissociation between the inhibitory effect on airway contraction and the hypotensive effect” value [1] is on record?
A: Its value is “became larger by inhalation administration than by intravenous administration”.

Q: Which “dissociation between the inhibitory effect on airway contraction and the hypotensive effect” value [1] does the source give for `O=C(O)c1csc(SCCN2C(=O)CC[C@@H]2COc2cccc(OC(F)(F)F)c2)n1` [Compound D, 2-{[2-((5R)-2-oxo-5-{[3-(trifluoromethoxy)phenoxy]methyl}pyrrolidin-1-yl)ethyl]sulfanyl}-1,3-thiazole-4-carboxylic acid] here?
A: The value was “became larger by inhalation administration than by intravenous administration”.

Q: For `CCCCOC(=O)c1csc(SCCN2C(=O)CC[C@@H]2COc2cc(Cl)cc(Cl)c2)n1` [Compound E, butyl 2-[(2-{(2R)-2-[(3,5-dichlorophenoxy)methyl]-5-oxopyrrolidin-1-yl}ethyl)thio]-1,3-thiazole-4-carboxylate], which “duration of activity (bronchodilator effect), comparison” value (shortened to “duration of activity”) ([2]; FIGS. 2 to 5) is on record?
A: Its value is “more prolonged duration of activity compared with Compound B”.

Q: With `CCCCCCCCCCCOC(=O)c1csc(SCCN2C(=O)CC[C@@H]2COc2cc(Cl)cc(Cl)c2)n1` [Compound F, undecyl 2-[(2-{(2R)-2-[(3,5-dichlorophenoxy)methyl]-5-oxopyrrolidin-1-yl}ethyl)sulfanyl]-1,3-thiazole-4-carboxylate] as the molecule, how does the “duration of activity” value ([2]; FIGS. 2 to 5) read?
A: The value was “more prolonged duration of activity compared with Compound F”.

Q: What about the “change of blood pressure (hypotensive effect)” value [3] of the same molecule?
A: Its value is “did not change the blood pressure”.

Q: And the “duration of bronchodilator activity, comparison” value [4]?
A: Its value is “prolonged duration of bronchodilator activity compared with Compound B”.

Q: With `O=C(OCCCCCCCCCCc1ccccc1)c1csc(SCCN2C(=O)CC[C@@H]2COc2cc(Cl)cc(Cl)c2)n1` [Compound G, 10-phenyldecyl 2-[(2-{(2R)-2-[(3,5-dichlorophenoxy)methyl]-5-oxopyrrolidin-1-yl}ethyl)sulfanyl]-1,3-thiazole-4-carboxylate] as the molecule, how does the “duration of activity” value ([2]; FIGS. 2 to 5) read?
A: The value was “more prolonged duration of activity compared with Compound F”.
